US9469650B2, “Melampomagnolide B derivatives” (BOARD OF TRUSTEES OF THE UNIVERSITY OF ARKANSAS, priority 2013, dated 2016)
Like-named read-outs stand apart in the source and are kept apart here.

What was measured:
NCI-H226 = assay: panel of 60 human tumor cell lines, growth inhibition (Non-Small Cell Lung Cancer); settings: Homo sapiens
MOLT-4 = assay: panel of 60 human tumor cell lines, growth inhibition (Leukemia); settings: Homo sapiens
HOP-62 = assay: panel of 60 human tumor cell lines, growth inhibition (Non-Small Cell Lung Cancer); settings: Homo sapiens
MCF7 = assay: panel of 60 human tumor cell lines, growth inhibition (Breast Cancer); settings: Homo sapiens
RXF 393 = assay: panel of 60 human tumor cell lines, growth inhibition (Renal Cancer); settings: Homo sapiens
HOP-92 = assay: panel of 60 human tumor cell lines, growth inhibition (Non-Small Cell Lung Cancer); settings: Homo sapiens
NCI-H460 = assay: as above; settings: Homo sapiens
CAKI-1 = assay: panel of 60 human tumor cell lines, growth inhibition (Renal Cancer); settings: Homo sapiens
SK-MEL-2 = assay: panel of 60 human tumor cell lines, growth inhibition (Melanoma); settings: Homo sapiens
SK-MEL-5 = assay: as above; settings: Homo sapiens
SN12C = assay: panel of 60 human tumor cell lines, growth inhibition (Renal Cancer); settings: Homo sapiens
MDA-MB-231/ATCC = assay: panel of 60 human tumor cell lines, growth inhibition (Breast Cancer); settings: Homo sapiens
HCT-15 = assay: panel of 60 human tumor cell lines, growth inhibition (Colon Cancer); settings: Homo sapiens
LOX IMVI = assay: panel of 60 human tumor cell lines, growth inhibition (Melanoma); settings: Homo sapiens
DU-145 = assay: panel of 60 human tumor cell lines, growth inhibition (Prostate Cancer); settings: Homo sapiens
HCC-2998 = assay: panel of 60 human tumor cell lines, growth inhibition (Colon Cancer); settings: Homo sapiens
SK-OV-3 = assay: panel of 60 human tumor cell lines, growth inhibition (Ovarian Cancer); settings: Homo sapiens
CCRF-CEM = assay: panel of 60 human tumor cell lines, growth inhibition (Leukemia); settings: Homo sapiens

## C=C1C(=O)O[C@H]2[C@H]1CC/C(COC(=O)OCCCN1CCCCC1)=C\CC[C@@]1(C)O[C@@H]21 [JVM 2-26]
NCI-H226; NCI-H226
  GI50: 4.43 µM
NCI-H226; NCI-H226, read-out: LC50
  CC50: 79.8 µM
MOLT-4; MOLT-4
  GI50: 4.07 µM
MOLT-4; MOLT-4, read-out: LC50
  CC50: 98.7 µM
MOLT-4; MOLT-4, read-out: TGI
  IC (TGI): 10.4 µM
HOP-62; HOP-62
  GI50: 15.3 µM
HOP-62; HOP-62, read-out: LC50
  CC50: 57.7 µM
HOP-62; HOP-62, read-out: TGI
  IC (TGI): 19.8 µM
MCF7; MCF7, MCF7
  GI50: 2.3 µM
MCF7; MCF7, read-out: LC50
  CC50: 50.8 µM
MCF7; MCF7, read-out: TGI
  IC (TGI): 10.7 µM
RXF 393; RXF 393, RXF 393
  GI50: 2.35 µM
RXF 393; RXF 393, read-out: LC50
  CC50: 34 µM
RXF 393; RXF 393, read-out: TGI
  IC (TGI): 8.65 µM
HOP-92; HOP-92, HOP-92
  GI50: 1.96 µM
HOP-92; HOP-92, read-out: LC50
  CC50: 31.4 µM
HOP-92; HOP-92, read-out: TGI
  IC (TGI): 7.47 µM
NCI-H460; NCI-H460
  GI50: 16.7 µM
NCI-H460; NCI-H460, read-out: LC50
  CC50: 77.5 µM
NCI-H460; NCI-H460, read-out: TGI
  IC (TGI): 36 µM
CAKI-1; CAKI-1
  GI50: 2.19 µM
CAKI-1; CAKI-1, read-out: LC50
  CC50: 34.5 µM
CAKI-1; CAKI-1, read-out: TGI
  IC (TGI): 11.9 µM
SK-MEL-2; SK-MEL-2
  GI50: 11.2 µM
SK-MEL-2; SK-MEL-2, read-out: LC50
  CC50: 55.8 µM
SK-MEL-2; SK-MEL-2, read-out: TGI
  IC (TGI): 25.1 µM
SK-MEL-5; SK-MEL-5
  GI50: 10.6 µM
SK-MEL-5; SK-MEL-5, read-out: LC50
  CC50: 47.6 µM
SK-MEL-5; SK-MEL-5, read-out: TGI
  IC (TGI): 22.5 µM
SN12C
  GI50: 8.41 µM
SN12C; read-out: LC50
  CC50: 55.2 µM
SN12C; read-out: TGI
  IC (TGI): 22.7 µM
MDA-MB-231/ATCC; MDA-MB-231
  GI50: 3.73 µM
MDA-MB-231/ATCC; MDA-MB-231, read-out: LC50
  CC50: 49.4 µM
MDA-MB-231/ATCC; MDA-MB-231, read-out: TGI
  IC (TGI): 16.2 µM
HCT-15; HCT-15
  GI50: 2.39 µM
HCT-15; HCT-15, read-out: LC50
  CC50: 37 µM
HCT-15; HCT-15, read-out: TGI
  IC (TGI): 10.6 µM
LOX IMVI
  GI50: 3.15 µM
LOX IMVI; read-out: LC50
  CC50: 37.8 µM
LOX IMVI; read-out: TGI
  IC (TGI): 11.7 µM
DU-145; DU-145
  GI50: 3.19 µM
DU-145; DU-145, read-out: LC50
  CC50: 35.3 µM
DU-145; DU-145, read-out: TGI
  IC (TGI): 12.5 µM
HCC-2998; HCC 2998
  GI50: 14.4 µM
HCC-2998; HCC 2998, read-out: LC50
  CC50: 60.1 µM
HCC-2998; HCC 2998, read-out: TGI
  IC (TGI): 19.4 µM
SK-OV-3; SK-OV-3
  GI50: 21 µM
SK-OV-3; SK-OV-3, read-out: LC50
  CC50: > 100 µM
SK-OV-3; SK-OV-3, read-out: TGI
  IC (TGI): 53.7 µM
HL-60(TB); Log10 Concentration −4.0
  Percent Growth: −50%
HL-60(TB); Log10 Concentration −5.0
  Percent Growth: −10%
HL-60(TB); Log10 Concentration −6.0
  Percent Growth: 73%
HL-60(TB); Log10 Concentration −7.0
  Percent Growth: 64%
HL-60(TB); Log10 Concentration −8.0
  Percent Growth: 93%
CCRF-CEM
  GI50: 1.78 µM
CCRF-CEM; read-out: LC50
  CC50: 63.5 µM
CCRF-CEM; read-out: TGI
  IC (TGI): 5.72 µM
